In the test the test system is 521955-158-R7-J2-PDC spheroids, viability % test/control. The test can be described thus: Anticancer human tumor 521955-158-R7-J2-PDC patient-derived pancreatic carcinoma cell line growth inhibition [TAK]. Conditions: spheroids with HUVEC and MSC; for viability, T/C: stronger effect = lower value. From the text:
Combinatorial screen of targeted agents with TAK-243 and ipatasertib in multi-cell type tumor spheroids
A high-throughput screen of multi-cell type tumor spheroids was designed to identify active combinations of targeted small molecules and TAK-243 or ipatasertib. Complex spheroids include a stromal component modeled by human endothelial cells (HUVEC) and fibroblasts modeled by human mesenchymal stem cells (MSCs). The concentration ranges selected for each drug and investigational agent were based upon clinically achievable concentrations if the clinical Cmax of the agent was known.
Compounds. The drugs and investigational agents: TAK-243 (785004), ipatasertib (767898), everolimus (733504), selumetinib (741078), bortezomib (756655), trametinib (758246), ixazomib (758254), vemurafenib (761431), dabrafenib (764134), sapanisertib (764658), alpelisib (765974), and copanlisib (816437), were obtained from the National Cancer Institute (NCI) Developmental Therapeutics Program Chemical Repository. The FDA-approved anticancer drug set is available from the NCI Developmental Therapeutics Program. […] The stock solutions were prepared in dimethyl sulfoxide (DMSO, Sigma-Aldrich, St. Louis, MO, cat. D2650) at 800-fold the tested concentration and stored at -70 degrees C prior to their use. All drugs and investigational agents were tested over a range starting from a high concentration at or near the clinical Cmax and decreasing in half-log increments. If the clinical Cmax for an agent had not been determined, the highest concentration tested was 10 microM.
NCI60 Cell Culture. NCI60 cell lines were obtained from the NCI Developmental Therapeutics Program Tumor Repository. For each lot of cells, the Repository performed Applied Biosystems AmpFLSTR Identifiler testing with PCR amplification to confirm consistency with the published Identifier STR profile for each cell line. Cells were kept in continuous culture for no more than 20 passages. The optimal seeding densities for each of the cell lines at each time point assessed were determined prior to performing the concentration response studies. Briefly, the NCI60 human tumor lines were grown as monolayers in RPMI 1640 medium supplemented with 10% FBS and 2 mmol/L L-glutamine.
An additional 2 lines were from the NCI60 cell line panel including melanomas, MALME-3M and SK-MEL-2. Pooled donor human umbilical vein endothelial cells (HUVEC, Lonza, cat. CC-2519) and human mesenchymal stem cells (hMSC, Lonza, cat. PT-2501) were purchased from Lonza (Walkersville, MD).
PDMR cell lines were grown in complete medium (DC medium): Dulbecco's modified Eagle's medium (DMEM)/F12 supplemented with 5% fetal bovine serum (FBS), 2 mM L-glutamine, 100 U/mL penicillin and 100 µg/ml streptomycin, 0.4 µg/ml hydrocortisone, 10 ng/ml epidermal growth factor (EGF) recombinant human protein, 24 µg/mL adenine, and 0.1 mg/mL primocin. During culture from frozen stock vials, PDMR cells were cultured in the same medium containing 10 µM Y-27632 (see Table 3). The PDCs were cultured in complete DMEM/F12 media without 10 microM Y-27632 dihydrochloride for at least two passages prior to the screen. The pooled donor HUVEC and hMSC were cultured in endothelial cell growth medium 2 (PromoCell, Heidelberg, Germany, cat. C-22011) and mesenchymal stem cell growth medium 2 (PromoCell, cat. C-28009), respectively. For all experiments, HUVEC and hMSC were used at passages </=5.
For the pre-screen, cell seeding densities were determined from a titration spanning the range from 5,000 to 313 cells per well. The mct-spheroids including 60% malignant cells, 25% HUVEC and 15% MSC dispensed as a mixture into U-bottom Ultra-Low Attachment 384-well plates (Corning, NY)
High-throughput Drug Combination Screening.
Prior to their inoculation into 384-well plates, malignant cells, HUVEC, and hMSC were removed from T flasks using TrypLE express (Thermo Fisher Scientific, cat. 12605036) and harvested by centrifugation for 5 min at 233 x g. […]

We go through seven compounds from PubChem BioAssay AID2060351 (Molecular Pharmacology Branch, DTP, NCI, 2025).

pIC50: −log10 of the molar value. “And” between values parts separate entries of the source, which are not always exact repeats. Equal values may be shown once.

In general, pIC50 refers to −log10 of the IC50, conventionally taken in molar units. Broadly, the viability, T/C is the result in the treated group divided by that in the control group, in per cent.
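Also: spheroids exposed to compound for 7 days before readout.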

As for `CC(C)CC(NC(=O)C(Cc1ccccc1)NC(=O)c1cnccn1)B(O)O` (configuration not stated) + CC(C)NCC(C(=O)N1CCN(c2ncnc3c2C(C)CC3O)CC1)c1ccc(Cl)cc1, the negative logarithm of the IC50 (pIC50) reads like this: (curve of first compound, second compound 0.3 µM) 8.25; (curve of first compound, second compound 0.949 µM) 8.27; (curve of first compound, second compound 3 µM) 8.25; (curve of first compound, second compound 9.49 µM) 8.28; (curve of first compound, second compound 30 µM) 8.29. The viability, T/C was 113% (second compound 0.3 µM, first compound 31.6 pM); 87.5% (second compound 0.3 µM, first compound 0.0001 µM); 92% (second compound 0.3 µM, first compound 0.000316 µM); 104% (second compound 0.3 µM, first compound 0.001 µM); 92.7% (second compound 0.3 µM, first compound 0.00316 µM); 6.67% (second compound 0.3 µM, first compound 0.01 µM). Also, the viability, T/C by setting is: (second compound 0.949 µM, first compound 31.6 pM) 94.7%; (second compound 0.949 µM, first compound 0.0001 µM) 82.4%; (second compound 0.949 µM, first compound 0.000316 µM) 77.3%; (second compound 0.949 µM, first compound 0.001 µM) 82.8%; (second compound 0.949 µM, first compound 0.00316 µM) 92.2%; (second compound 0.949 µM, first compound 0.01 µM) 8.18%. Moreover, the viability, T/C (second compound 3 µM, first compound 31.6 pM) was 93.4%; the viability, T/C (second compound 3 µM, first compound 0.0001 µM) was 101%; the viability, T/C (second compound 3 µM, first compound 0.000316 µM) is 86.6%; the viability, T/C (second compound 3 µM, first compound 0.001 µM) is 84.9%; the viability, T/C (second compound 3 µM, first compound 0.00316 µM) is 93.1%; the viability, T/C (second compound 3 µM, first compound 0.01 µM) was 7.99%. Also, the viability, T/C was 92.7% (second compound 9.49 µM, first compound 31.6 pM); 95.9% (second compound 9.49 µM, first compound 0.0001 µM); 68.7% (second compound 9.49 µM, first compound 0.000316 µM); 80% (second compound 9.49 µM, first compound 0.001 µM); 82.7% (second compound 9.49 µM, first compound 0.00316 µM); 7.48% (second compound 9.49 µM, first compound 0.01 µM). Besides, the viability, T/C runs as follows: (second compound 30 µM, first compound 31.6 pM) 86.8%; (second compound 30 µM, first compound 0.0001 µM) 83.7%; (second compound 30 µM, first compound 0.000316 µM) 75.4%; (second compound 30 µM, first compound 0.001 µM) 78%; (second compound 30 µM, first compound 0.00316 µM) 84.1%; (second compound 30 µM, first compound 0.01 µM) 5.06%.

Turning to `COC1CC2CCC(C)C(O)(O2)C(=O)C(=O)N2CCCCC2C(=O)OC(C(C)CC2CCC(OCCO)C(OC)C2)CC(=O)C(C)C=C(C)C(O)C(OC)C(=O)C(C)CC(C)C=CC=CC=C1C` (configuration not stated), the viability, T/C (compound 0.000316 µM) was 103%; the viability, T/C (compound 0.001 µM) was 77.4% and 84.4%; the viability, T/C (compound 0.00316 µM) is 75.2% and 91.7%; the viability, T/C (compound 0.01 µM) was 90.3% and 101%; the viability, T/C (compound 0.0316 µM) was 109% and 117%; the viability, T/C (compound 0.1 µM) was 102% and 85.5%. The negative-log IC50 (pIC50) (curve of compound) was less than 7.00.

Take `COc1c(OCCCN2CCOCC2)ccc2c3n(c(=NC(=O)c4cnc(N)nc4)nc12)CCN3`: the viability, T/C was 87.5% and 86.9% (compound 0.00316 µM); 67.9% and 63.5% (compound 0.01 µM); 41.4% and 50.6% (compound 0.0316 µM); 26.5% and 25.3% (compound 0.1 µM); 14.9% and 13.6% (compound 0.316 µM); 10% and 10.6% (compound 1 µM). Further, the negative-log IC50 (pIC50) (curve of compound) is 7.65 and 7.60.

In the case of `Cc1nc(NC(=O)N2CCCC2C(N)=O)sc1-c1ccnc(C(C)(C)C(F)(F)F)c1` (configuration not stated), the viability, T/C (compound 0.0316 µM) is 83.2% and 92.5%; the viability, T/C (compound 0.1 µM) was 64.2% and 84.5%; the viability, T/C (compound 0.316 µM) was 59.4% and 74%; the viability, T/C (compound 1 µM) was 70.8% and 73.5%; the viability, T/C (compound 3.16 µM) is 58.1% and 52.5%; the viability, T/C (compound 10 µM) is 34.1% and 30.3%. Where the note is “curve of compound”, the negative logarithm of the IC50 (pIC50) was 5.34 and 5.43.

In the case of `CCCS(=O)(=O)Nc1ccc(F)c(C(=O)c2c[nH]c3ncc(-c4ccc(Cl)cc4)cc23)c1F`, the viability, T/C is 98.6% and 98.4% (compound 0.316 µM); 97.2% and 95.1% (compound 1 µM); 94.6% and 78.2% (compound 3.16 µM); 108% and 71% (compound 10 µM); 82.2% and 67.9% (compound 31.6 µM); 90.6% and 82.5% (compound 100 µM). In addition, the negative-log IC50 (pIC50) (curve of compound) was less than 4.00.

`CC(=O)Nc1cccc(-n2c(=O)n(C3CC3)c(=O)c3c(Nc4ccc(I)cc4F)n(C)c(=O)c(C)c32)c1`: the viability, T/C by setting is: (compound 94.9 pM) 97.3% and 89.9%; (compound 0.0003 µM) 67.1% and 65.7%; (compound 0.000949 µM) 57.9% and 54.9%; (compound 0.003 µM) 48.7% and 39.5%; (compound 0.00949 µM) 32.1% and 27.2%; (compound 0.03 µM) 19.2% and 16.3%. Besides, the pIC50 (curve of compound) is 8.72 and 8.90.

Consider `CC(C)CC(NC(=O)CNC(=O)c1cc(Cl)ccc1Cl)B1OC(=O)CC(CC(=O)O)(C(=O)O)O1` (configuration not stated), for which the viability, T/C was 111% and 81.1% (compound 0.000316 µM); 73.9% and 80.3% (compound 0.001 µM); 90.1% and 80% (compound 0.00316 µM); 111% and 82.8% (compound 0.01 µM); 65.7% and 50.1% (compound 0.0316 µM); 2.27% and 1.64% (compound 0.1 µM). Where the note is “curve of compound”, the negative logarithm of the IC50 (pIC50) was 7.38 and 7.50.
